Values of other authors in US5641787A, “Indole derivatives as dopamine D4 antagonists” (Merck, Sharp & Dohme Ltd., priority 1995, dated 1997).

Details: stated in Recl. Trav. Chim. Pays-Bas, 1954, 73, 629

SMILES: c1ccc2c(c1)CCN(Cc1c[nH]c3ccccc13)C2 [3-(1,2,3,4-tetrahydroisoquinolin-2-yl)methyl-1H-indole]
- oxytocic activity: oxytocic activity
